IC50 data for 27 compounds are collected here from patent publication US11040035B2, “3-oxo-2,6-diphenyl-2,3-dihydropyridazine-4-carboxamides” (BAYER PHARMA AKTIENGESELLSCHAFT, priority 2016, dated 2021).

This assay concerns the target T1, AHR (Homo sapiens, UniProt P35869).
T1 sequence (P35869 11-848): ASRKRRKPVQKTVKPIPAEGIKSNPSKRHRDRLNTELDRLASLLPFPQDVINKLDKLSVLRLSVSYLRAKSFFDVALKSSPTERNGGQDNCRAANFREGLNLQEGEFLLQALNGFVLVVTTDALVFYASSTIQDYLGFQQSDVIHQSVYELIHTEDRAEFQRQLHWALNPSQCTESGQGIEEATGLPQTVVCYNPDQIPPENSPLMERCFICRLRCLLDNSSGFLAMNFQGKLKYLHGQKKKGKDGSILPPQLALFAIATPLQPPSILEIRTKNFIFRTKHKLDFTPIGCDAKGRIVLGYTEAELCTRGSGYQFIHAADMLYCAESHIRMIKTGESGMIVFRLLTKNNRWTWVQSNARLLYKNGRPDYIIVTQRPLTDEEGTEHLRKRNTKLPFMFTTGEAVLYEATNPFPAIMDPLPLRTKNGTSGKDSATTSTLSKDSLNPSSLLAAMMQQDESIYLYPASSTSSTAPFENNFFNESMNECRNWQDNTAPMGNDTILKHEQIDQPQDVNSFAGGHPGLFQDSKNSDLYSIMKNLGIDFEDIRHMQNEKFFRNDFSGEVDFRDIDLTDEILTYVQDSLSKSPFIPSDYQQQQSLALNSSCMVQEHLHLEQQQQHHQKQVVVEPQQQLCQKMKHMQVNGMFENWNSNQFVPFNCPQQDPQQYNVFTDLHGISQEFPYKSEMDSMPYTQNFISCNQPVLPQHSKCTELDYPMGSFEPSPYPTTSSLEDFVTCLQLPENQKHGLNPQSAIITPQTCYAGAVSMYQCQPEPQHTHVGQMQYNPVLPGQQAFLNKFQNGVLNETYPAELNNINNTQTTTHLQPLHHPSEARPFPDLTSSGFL
Briefly: In vitro assay 1: antagonism in human cell line (transactivation assay, kynurenic acid prestimulated). As to conditions: Assay 1: AHR-luc Hum Antagonism IC50 [M], 150 μM kynurenic acid, 20 hours, firefly luciferase.

Structures are written as SMILES. A value given as a limit tells only on which side of the number the result lay.

A word on the IC50: it is the concentration that gives 50% inhibition. Higher therefore signals a need for much substance.

Regarding `Cc1ccc(-c2cc(C(=O)NCCO)c(=O)n(-c3ccccc3)n2)cc1` [Example 74, N-(2-hydroxyethyl)-6-(4-methylphenyl)-3-oxo-2-phenyl-2,3-dihydropyridazine-4-carboxamide], the half-inhibitory concentration (IC50) was found to be 2.1e-06 M. That is a single-digit micromolar value.
Compound `O=C(NC(CO)C1CCCO1)c1cc(-c2ccc(C(F)(F)F)cc2)nn(-c2cccc(F)c2)c1=O` (single isomer, unassigned) [Example 353, 1,4-anhydro-2,3,5-trideoxy-5-[({2-(3-fluorophenyl)-3-oxo-6-[4-(trifluoromethyl)phenyl]-2,3-dihydropyridazin-4-yl}carbonyl)amino]hexitol] had an IC50 of 2e-08 M.
`Cc1ccc(-c2cc(C(=O)N[C@@H](CO)C(C)C)c(=O)n(-c3cccc(F)c3)n2)cc1C` [Example 84, 6-(3,4-dimethylphenyl)-2-(3-fluorophenyl)-N-[(2R)-1-hydroxy-3-methylbutan-2-yl]-3oxo-2,3-dihydropyridazine-4-carboxamide]: it took 3.66e-06 M to reach half-maximal inhibition (IC50).
In the case of `CC(CO)NC(=O)c1cc(-c2ccc(Cl)cc2)nn(-c2ccccc2)c1=O` (stereo not drawn) [Example 79, 6-(4-chlorophenyl)-N-(1-hydroxypropan-2-yl)-3-oxo-2-phenyl-2,3-dihydropyridazine-4-carboxamide], the IC50 turned out to be 2.82e-07 M.
The compound `O=C(NCC(O)C(F)(F)F)c1cc(-c2ccc(Cl)cc2)nn(-c2cccc(Cl)c2)c1=O` (stereo not drawn) [Example 62, 2-(3-Chlorophenyl)-6-(4-chlorophenyl)-3-oxo-N-(3,3,3-trifluoro-2-hydroxypropyl)-2,3-dihydropyridazine-4-carboxamide] came in with a 50% inhibitory concentration (IC50) of 1.5e-07 M.
As for `Cc1ccc(-c2cc(C(=O)NCCO)c(=O)n(-c3cccc(F)c3)n2)cc1` [Example 19, 2-(3-Fluorophenyl)-N-(2-hydroxyethyl)-6-(4-methylphenyl)-3-oxo-2,3-dihydropyridazine-4-carboxamide], the figure is 3.91e-07 M; as for `Cc1ccc(-c2cc(C(=O)N[C@H](CO)C(C)C)c(=O)n(-c3ccccc3)n2)cc1` [Example 71, N-[(2S)-1-hydroxy-3-methylbutan-2-yl]-6-(4-methylphenyl)-3-oxo-2-phenyl-2,3-dihydropyridazine-4-carboxamide], 4.05e-08 M; as for `Cc1ccc(-c2cc(C(=O)NC(CO)C(C)C)c(=O)n(-c3cccc(F)c3)n2)cc1C` (stereo not drawn) [Example 82, 6-(3,4-dimethylphenyl)-2-(3-fluorophenyl)-N-(1-hydroxy-3-methylbutan-2-yl)-3-oxo-2,3-dihydropyridazine-4-carboxamide], 1.03e-07 M.
Compound `O=C(NC(CO)C1CCCO1)c1cc(-c2ccc(C(F)(F)F)cc2)nn(-c2cccc(F)c2)c1=O` (single isomer, unassigned) [Example 355, 1,4-anhydro-2,3,5-trideoxy-5-[({2-(3-fluorophenyl)-3-oxo-6-[4-(trifluoromethyl)phenyl]-2,3-dihydropyridazin-4-yl}carbonyl)amino]hexitol] gave an IC50 of 1.2e-07 M.
For `CC(C)C[C@@H](CO)NC(=O)c1cc(-c2ccc(Cl)cc2)nn(-c2cccc(Cl)c2)c1=O` [Example 61, 2-(3-Chlorophenyl)-6-(4-chlorophenyl)-N-[(2S)-1-hydroxy-4-methylpentan-2-yl]-3-oxo-2,3-dihydropyridazine-4-carboxamide], half-maximal inhibition (IC50) required 5.14e-07 M.
As for `COCCC(CO)NC(=O)c1cc(-c2ccc(C(F)(F)F)cc2)nn(-c2cccc(F)c2)c1=O` (single isomer, unassigned; (+)) [Example 332, (+)-2-(3-fluorophenyl)-N-(1-hydroxy-4-methoxybutan-2-yl)-3-oxo-6-[4-(trifluoromethyl)phenyl]-2,3-dihydropyridazine-4-carboxamide], the figure is 6.06e-08 M.
As for `CC[C@@H](CO)NC(=O)c1cc(-c2ccc(Cl)cc2)nn(-c2cccc(Cl)c2)c1=O` [Example 60, 2-(3-Chlorophenyl)-6-(4-chlorophenyl)-N-[(2S)-1-hydroxybutan-2-yl]-3-oxo-2,3-dihydropyridazine-4-carboxamide], the midpoint of inhibition, the IC50, lay at 6.6e-08 M. This IC50 and that of the compound before are within 1.5-fold of each other.
The compound `O=C(NC(CO)C1CCCO1)c1cc(-c2ccc(Cl)cc2)nn(-c2cccc(F)c2)c1=O` (single isomer, unassigned) [Example 319, 1,4-anhydro-5-({[6-(4-chlorophenyl)-2-(3-fluorophenyl)-3-oxo-2,3-dihydropyridazin-4-yl]carbonyl}amino)-2,3,5-trideoxyhexitol] returned an IC50 of 5.02e-08 M.
As for `O=C(NC(CO)C1CCCO1)c1cc(-c2ccc(Cl)cc2)nn(-c2cccc(F)c2)c1=O` (single isomer, unassigned) [Example 317, 1,4-anhydro-5-({[6-(4-chlorophenyl)-2-(3-fluorophenyl)-3-oxo-2,3-dihydropyridazin-4-yl]carbonyl}amino)-2,3,5-trideoxyhexitol], the figure is 1.77e-07 M.
On to `C[C@H](CO)NC(=O)c1cc(-c2ccc(Cl)cc2)nn(-c2ccccc2)c1=O` [Example 81, 6-(4-chlorophenyl)-N-[(2R)-1-hydroxypropan-2-yl]-3-oxo-2-phenyl-2,3-dihydropyridazine-4-carboxamide], for which the 50% inhibitory concentration (IC50) is 1.12e-06 M.
`CC(C)[C@@H](CO)NC(=O)c1cc(-c2ccc(Cl)cc2)nn(-c2cccc(Cl)c2)c1=O` [Example 59, 2-(3-Chlorophenyl)-6-(4-chlorophenyl)-N-[(2S)-1-hydroxy-3-methylbutan-2-yl]-3-oxo-2,3-dihydropyridazine-4-carboxamide] yielded a 50% inhibitory concentration (IC50) of 4.96e-08 M. Compared with the last compound, the IC50 is about 23-fold lower.
Take `O=C(NC(CO)C1CCCO1)c1cc(-c2ccc(C(F)(F)F)cc2)nn(-c2cccc(F)c2)c1=O` (single isomer, unassigned) [Example 354, 1,4-anhydro-2,3,5-trideoxy-5-[({2-(3-fluorophenyl)-3-oxo-6-[4-(trifluoromethyl)phenyl]-2,3-dihydropyridazin-4-yl}carbonyl)amino]hexitol]: the IC50 was 1.41e-08 M. Compared with the last compound, the IC50 is about 3.5-fold lower.
`O=C(NC(CO)C1CCCO1)c1cc(-c2ccc(Cl)cc2)nn(-c2cccc(F)c2)c1=O` (single isomer, unassigned) [Example 318, 1,4-anhydro-5-({[6-(4-chlorophenyl)-2-(3-fluorophenyl)-3-oxo-2,3-dihydropyridazin-4-yl]carbonyl}amino)-2,3,5-trideoxyhexitol] gave an IC50 of 5.34e-08 M.
As for `CC(NC(=O)c1cc(-c2ccc(C(F)(F)F)cc2)nn(-c2cccc(F)c2)c1=O)C(O)C(F)(F)F` (single isomer, unassigned) [Example 268, Isomer no. 1 of 2-(3-fluorophenyl)-3-oxo-N-(4,4,4-trifluoro-3-hydroxybutan-2-yl)-6-[4-(trifluoromethyl)phenyl]-2,3-dihydropyridazine-4-carboxamide], the figure is above 2e-05 M.
The compound `CC[C@H](CO)NC(=O)c1cc(-c2ccc(C)c(C)c2)nn(-c2cccc(F)c2)c1=O` [Example 87, 6-(3,4-dimethylphenyl)-2-(3-fluorophenyl)-N-[(2R)-1-hydroxybutan-2-yl]-3-oxo-2,3-dihydropyridazine-4-carboxamide] returned an IC50 of 7.26e-07 M.
As for `CC(CO)NC(=O)c1cc(-c2ccc(Cl)cc2)nn(-c2cccc(Cl)c2)c1=O` (stereo not drawn) [Example 65, 2-(3-Chlorophenyl)-6-(4-chlorophenyl)-N-(1-hydroxypropan-2-yl)-3-oxo-2,3-dihydropyridazine-4-carboxamide], the figure is 3e-07 M; as for `Cc1ccc(-c2cc(C(=O)N[C@@H](CO)C(C)C)c(=O)n(-c3ccccc3)n2)cc1` [Example 72, N-[(2R)-1-hydroxy-3-methylbutan-2-yl]-6-(4-methylphenyl)-3-oxo-2-phenyl-2,3-dihydropyridazine-4-carboxamide], 2.11e-06 M; as for `Cc1ccc(-c2cc(C(=O)NC(C)CO)c(=O)n(-c3cccc(F)c3)n2)cc1C` (stereo not drawn) [Example 88, 6-(3,4-dimethylphenyl)-2-(3-fluorophenyl)-N-(1-hydroxypropan-2-yl)-3-oxo-2,3-dihydropyridazine-4-carboxamide], 1.46e-07 M.
Consider `Cc1ccc(-c2cc(C(=O)N[C@H](C)CO)c(=O)n(-c3cccc(F)c3)n2)cc1` [Example 9, 2-(3-Fluorophenyl)-N-[(2R)-1-hydroxypropan-2-yl]-6-(4-methylphenyl)-3-oxo-2,3-dihydropyridazine-4-carboxamide], for which it took 1.81e-07 M to reach half-maximal inhibition (IC50).
For the compound `Cc1ccc(-c2cc(C(=O)NC(C)CO)c(=O)n(-c3ccccc3)n2)cc1` (stereo not drawn) [Example 73, N-(1-hydroxypropan-2-yl)-6-(4-methylphenyl)-3-oxo-2-phenyl-2,3-dihydropyridazine-4-carboxamide], the concentration for half-maximal inhibition (IC50) was determined as 3.07e-07 M.
As to `CC(C)C(O)CNC(=O)c1cc(-c2ccc(Cl)cc2)nn(-c2cccc(Cl)c2)c1=O` (stereo not drawn) [Example 67, 2-(3-Chlorophenyl)-6-(4-chlorophenyl)-N-(2-hydroxy-3-methylbutyl)-3-oxo-2,3-dihydropyridazine-4-carboxamide], the IC50 was found to be 3.89e-07 M.
Regarding `CCC(CO)NC(=O)c1cc(-c2ccc(C)c(C)c2)nn(-c2cccc(F)c2)c1=O` (stereo not drawn) [Example 85, 6-(3,4-dimethylphenyl)-2-(3-fluorophenyl)-N-(1-hydroxybutan-2-yl)-3-oxo-2,3-dihydropyridazine-4-carboxamide], half-maximal inhibition (IC50) required 8.61e-08 M.
